Legend:
Type in all cases: in vivo
Setaria viridis = assay: Post-emergence herbicidal action against SETVI; details: 20 g a.i./ha, visual rating about 3 weeks after treatment
Description: (§1) Post-Emergence Herbicidal Action Against Harmful Plants and Crop Plant Compatibility Seeds of monocotyledonous and dicotyledonous weeds and crop plants are placed in sandy loam in plastic or wood-fibre pots, covered with soil and cultivated in a greenhouse under controlled growth conditions. 2 to 3 weeks after sowing, the test plants are treated at the one-leaf stage. The compounds of the invention, formulated in the form of wettable powders (WP) or as emulsion concentrates (EC), are then sprayed onto the green parts of the plants as aqueous suspension or emulsion with addition of 0.5% additive at a water application rate of 600 l/ha (converted). After the test plants have been kept in the greenhouse under optimum growth conditions for about 3 weeks, the activity of the preparations is rated visually in comparison to untreated controls. For example, 100% activity=the plants have died, 0% activity=like control plants. [table]

Abutilon theophrasti = assay: Post-emergence herbicidal action against ABUTH; details: 20 g a.i./ha, visual rating about 3 weeks after treatment
Description: as §1

Veronica persica = assay: Post-emergence herbicidal action against VERPE; details: 20 g a.i./ha
Description: as §1

Avena fatua = assay: Post-emergence herbicidal action against AVEFA; details: 20 g a.i./ha, visual rating about 3 weeks after treatment
Description: as §1

Matricaria inodora = assay: Post-emergence herbicidal action against MATIN; details: 20 g a.i./ha
Description: as §1

Pharbitis purpurea = assay: Post-emergence herbicidal action against PHBPU; details: 20 g a.i./ha
Description: as §1

Echinochloa crus-galli = assay: Post-emergence herbicidal action against ECHCG; details: 20 g a.i./ha, visual rating about 3 weeks after treatment
Description: as §1

DIGSA = assay: Post-emergence herbicidal action against DIGSA; details: 20 g a.i./ha, visual rating about 3 weeks after treatment
Description: as §1, with “plants.” for “plants. [table]”

Polygonum convolvulus = assay: Post-emergence herbicidal action against POLCO; details: 20 g a.i./ha
Description: as §1

Alopecurus myosuroides = assay: Post-emergence herbicidal action against ALOMY; details: 20 g a.i./ha, visual rating about 3 weeks after treatment
Description: as §1

Amaranthus retroflexus = assay: Post-emergence herbicidal action against AMARE; details: 20 g a.i./ha
Description: as §1

Lolium rigidum = assay: Post-emergence herbicidal action against LOLRI; details: 20 g a.i./ha, visual rating about 3 weeks after treatment
Description: as §1

CC1(C(=O)NC2C=CC(C(=O)OCCSc3ccccc3)C2)CC(c2cc(F)cc(F)c2)=NO1 (stereo not drawn) [Example I-16]
Herbicidal action against [%] SETVI (Setaria viridis): 80% | Herbicidal action against [%] ABUTH (Abutilon theophrasti): 80% | Herbicidal action against [%] VERPE (Veronica persica): 80% | Herbicidal action against [%] AVEFA (Avena fatua): 90% | Herbicidal action against [%] MATIN (Matricaria inodora): 80% | Herbicidal action against [%] PHBPU (Pharbitis purpurea): 80% | Herbicidal action against [%] ECHCG (Echinochloa crus-galli): 80% | Herbicidal action against [%] DIGSA (DIGSA): 80% | Herbicidal action against [%] POLCO (Polygonum convolvulus): 80% | Herbicidal action against [%] ALOMY (Alopecurus myosuroides): 90%

CC1(C(=O)NC2C=CC(C(=O)OCCSCc3ccccc3)C2)CC(c2cc(F)cc(F)c2)=NO1 (stereo not drawn) [Example I-07]
Herbicidal action against [%] SETVI (Setaria viridis): 90% | Herbicidal action against [%] ABUTH (Abutilon theophrasti): 80% | Herbicidal action against [%] AMARE (Amaranthus retroflexus): 90% | Herbicidal action against [%] VERPE (Veronica persica): 90% | Herbicidal action against [%] AVEFA (Avena fatua): 90% | Herbicidal action against [%] MATIN (Matricaria inodora): 80% | Herbicidal action against [%] LOLRI (Lolium rigidum): 90% | Herbicidal action against [%] PHBPU (Pharbitis purpurea): 80% | Herbicidal action against [%] ECHCG (Echinochloa crus-galli): 90% | Herbicidal action against [%] DIGSA (DIGSA): 90% | Herbicidal action against [%] POLCO (Polygonum convolvulus): 90% | Herbicidal action against [%] ALOMY (Alopecurus myosuroides): 90%

C=CCSCCOC(=O)C1C=CC(NC(=O)C2(C)CC(c3cc(F)cc(F)c3)=NO2)C1 (stereo not drawn) [Example I-11]
Herbicidal action against [%] SETVI (Setaria viridis): 90% | Herbicidal action against [%] ABUTH (Abutilon theophrasti): 90% | Herbicidal action against [%] AMARE (Amaranthus retroflexus): 90% | Herbicidal action against [%] VERPE (Veronica persica): 90% | Herbicidal action against [%] AVEFA (Avena fatua): 90% | Herbicidal action against [%] MATIN (Matricaria inodora): 80% | Herbicidal action against [%] LOLRI (Lolium rigidum): 100% | Herbicidal action against [%] PHBPU (Pharbitis purpurea): 80% | Herbicidal action against [%] ECHCG (Echinochloa crus-galli): 90% | Herbicidal action against [%] DIGSA (DIGSA): 90% | Herbicidal action against [%] POLCO (Polygonum convolvulus): 90% | Herbicidal action against [%] ALOMY (Alopecurus myosuroides): 100%

CC1(C(=O)NC2C=CC(C(=O)OCCSCC(F)(F)F)C2)CC(c2cc(F)cc(F)c2)=NO1 (stereo not drawn) [Example I-12]
Herbicidal action against [%] SETVI (Setaria viridis): 80% | Herbicidal action against [%] MATIN (Matricaria inodora): 80% | Herbicidal action against [%] LOLRI (Lolium rigidum): 80% | Herbicidal action against [%] PHBPU (Pharbitis purpurea): 80% | Herbicidal action against [%] ECHCG (Echinochloa crus-galli): 80% | Herbicidal action against [%] DIGSA (DIGSA): 80% | Herbicidal action against [%] POLCO (Polygonum convolvulus): 80% | Herbicidal action against [%] ALOMY (Alopecurus myosuroides): 90%

CSCCOC(=O)C1C=CC(NC(=O)C2(CF)CC(c3cc(F)cc(C#N)c3)=NO2)C1 (stereo not drawn) [Example I-65]
Herbicidal action against [%] ABUTH (Abutilon theophrasti): 80% | Herbicidal action against [%] AMARE (Amaranthus retroflexus): 80% | Herbicidal action against [%] VERPE (Veronica persica): 80% | Herbicidal action against [%] AVEFA (Avena fatua): 80% | Herbicidal action against [%] MATIN (Matricaria inodora): 80% | Herbicidal action against [%] LOLRI (Lolium rigidum): 80% | Herbicidal action against [%] ECHCG (Echinochloa crus-galli): 80% | Herbicidal action against [%] POLCO (Polygonum convolvulus): 90% | Herbicidal action against [%] ALOMY (Alopecurus myosuroides): 90%

C=CC1(C(=O)NC2C=CC(C(=O)OCCSC)C2)CC(c2cc(Cl)cc(Cl)c2)=NO1 (stereo not drawn) [Example I-55]
Herbicidal action against [%] SETVI (Setaria viridis): 90% | Herbicidal action against [%] ABUTH (Abutilon theophrasti): 80% | Herbicidal action against [%] AMARE (Amaranthus retroflexus): 90% | Herbicidal action against [%] VERPE (Veronica persica): 90% | Herbicidal action against [%] AVEFA (Avena fatua): 80% | Herbicidal action against [%] MATIN (Matricaria inodora): 80% | Herbicidal action against [%] PHBPU (Pharbitis purpurea): 80% | Herbicidal action against [%] DIGSA (DIGSA): 80% | Herbicidal action against [%] POLCO (Polygonum convolvulus): 80% | Herbicidal action against [%] ALOMY (Alopecurus myosuroides): 100%

CSCCOC(=O)C1C=CC(NC(=O)C2(CCl)CC(c3cc(C)cc(F)c3)=NO2)C1 (stereo not drawn) [Example I-57]
Herbicidal action against [%] MATIN (Matricaria inodora): 80% | Herbicidal action against [%] ALOMY (Alopecurus myosuroides): 80%

— patent US12185723B2, “Herbicidally active 3-phenylisoxazoline-5-carboxamides of s-containing cyclopentenylcarboxylic esters” (Bayer Aktiengesellschaft, priority 2019, dated 2025)
